Laboratory results: patent US20260151403A1, “NEK7 DEGRADERS AND METHODS OF USE THEREOF” (Captor Therapeutics S.A., priority 2022, published 2026)

Columns and labels:
[1] = target: T1, [NEK7]-[compound of formula (I)]-[CRBN/DDB1] complex (Homo sapiens, UniProt Q8TDX7+Q96SW2); experiment: HTRF ternary complex assay; type: binding; conditions: dose-response, 180 min at 25° C.; read-out: HTRF ternary complex Average pEC50 by molecule (converted)
Experimental: The effect of the molecular glue compounds of the invention on the formation of a ternary complex composed of [NEK7]-[compound of formula (I)]-[CRBN/DDB1] was investigated.
Mix solution of proteins and reagents was prepared: • 24 nM NEK7, 52.8 nM 6×His-CRBN/Strep-DDB1, 3 nM of Streptavidin-Eu cryptate […] and 6.67 nM of Anti-6×his-d2 […] was prepared in PPI Europium detection buffer (Cisbio) with 1 mM DTT.
The tested compounds in dose-response were dispensed onto a white 384-well low volume plate (Greiner, 784075). DMSO was backfilled to all wells, resulting in a final DMSO content of 0.5%. Wells containing only DMSO served as background.
The plate was sealed with transparent film and shaken using a VibroTurbulator for 60 sec at level 3.
The plate was then spun down shortly (10 s, 1000 rcf) and incubated at 25° C. for 180 min.
The read-out was performed with plate reader (Pherastar, BMG Labtech) in time resolved fluorescence mode. Filterset: TR 337 665 620.
The results were analyzed as follows: • 1) an average of fluorescence for background signal was calculated and used as a negative control; • 2) raw fluorescence values for tested compounds were normalized against negative controls; • 3) saturation curve was fitted to specific binding with Hill slope model; • 4) EC50 and pEC50 values were determined.

[2] = target: T1, [NEK7]-[compound of formula (I)]-[CRBN/DDB1] complex; experiment: AlphaLISA dose response ternary complex formation assay; type: binding; conditions: 1 μM compound, normalized to maximum signal of Compound 2 (positive control) and DMSO background; for activation at 1 µM: read-out: Normalized AlphaLISA ternary complex average signal at 1 μM molecule
Experimental: The effect of the molecular glue compounds of the invention on the formation of a ternary complex composed of [NEK7]-[compound of formula (I)]-[CRBN/DDB1] was investigated with two methods: AlphaLISA dose response assay or HTRF ternary complex assay.
Two types of protein solution were prepared: • 200 nM biotinylated NEK7, 40 μg/ml AlphaScreen Streptavidin-coated Donor Beads in HBS (10 mM HEPES, 150 mM NaCL, pH 7.4) buffer with 0.1% Tween-20 and 1 mM DTT, • 200 nM 6×His-CRBN/Strep-DDB1, 40 μg/ml AlphaLISA Anti-6×His Acceptor beads in HBS buffer with 0.1% Tween-20 and 1 mM DTT.
The prepared solutions were incubated at room temperature for 30 min and then the solution containing the donor beads was mixed with the solution containing the acceptor beads.
The tested compounds were dispensed onto a white 384-well AlphaPlate 384 SW. DMSO was backfilled to all wells, resulting in a final DMSO content of 2%. Wells containing only DMSO served as background. Next, 10 μl of solution with donor and acceptor beads was added to the wells.
The plate was sealed with transparent film and shaken using a VibroTurbulator for 60 sec at room temperature, level 3. The plate was then spun down shortly (10 s, 1000 rcf, room temperature) and incubated at 25° C. for 30 min.
The read-out was performed with PerkinElmer Enspire Multimode Plate Reader (method for AlphaLISA 384-well low volume, Filterset: λexc=680 nm, λem=615 nm).
The results were analyzed as follows: • 1) an average of luminescence for background signal was calculated and used as a negative control; • 2) average of the maximum measured luminescence for Compound 2 was calculated and used as an internal positive control; • 3) raw luminescence values were normalized against positive and negative controls; • 4) Normalized responses to Compound 2 were determined.

NEK7-HiBiT protein = NEK7-HiBiT protein (Homo sapiens, UniProt Q8TDX7); experiment: NEK7-HiBiT degradation assay (Nano-Glo HiBiT Lytic Assay) in HEK293 NEK7-HiBiT cells; type: cell-based; conditions: 24 h, conc. 0.1, 1 and 10 μM tested, concentration of the table values not stated, mean of 3 technical replicates
Experimental: HEK293 NEK7-HiBiT cells were generated using CRISPR-Cas9 system. HEK293 cells were transformed with pSpCas9-BB-2A-Puro v2.0 plasmid carrying gRNA targeting the N-terminus of NEK7 and ssODN template containing the HiBiT tag sequence with flanking homology sequences. Neon Transfection System (Thermo Fisher Scientific) was used for electroporation. HEK293 NEK7-HiBiT cells were cultured with DMEM Glutamax (Gibco) supplemented with 10% heat inactivated FBS (Gibco). After transfection the culture medium was changed to DMEM Glutamax with 10% heat-inactivated FBS and 1% Penicillin-Streptomycin (Biowest) supplemented with Puromycin (2 μg/ml; Invivogen) for clonal selection. In order to isolate single cell clones for further validation and analysis, limiting dilution cloning in 96-well plates was performed. When the single clones reached confluency, HiBiT Lytic Assay (Promega) was performed in order to identify HiBiT positive clones. The clone selected for further studies was verified and validated using genotyping and HiBiT Blotting (Promega).
Selected clone of HEK293 NEK7-HiBiT cells was maintained in the DMEM-Glutamax medium supplemented with 10% of heat-inactivated FBS (Gibco) and 1% of Penicillin-Streptomycin Solution 100x (Biowest) at 37° C., 5% CO2 and subcultured every 2-3 days.
For Nano-Glo HiBiT Lytic Assay HEK293 NEK7-HiBiT cells were seeded at the density 2×10^3 cells in triplicates in the 40 μL of growth medium per single well on 384 well plate (Greiner Bio-One). Compounds or DMSO were added to treatment plates using Echo555 Liquid Handler and incubated at 37° C., 5% CO2 for 24 hours. After incubation 40 μL of Nano-Glo HiBiT Lytic Reagent (prepared according to the manufacturer protocol) were added to 40 μL of the cell culture medium present in each well. The plate content was briefly mixed (460 rpm) on an orbital shaker to ensure cell lysis. The plate was left at RT protected from light for another 10 min to stabilize the luminescent signal. The luminescence signal was measured using CLARIOstar Multimode Plate Reader. Focus and gain were adjusted to DMSO treated cells. The results were calculated as the NEK7-HiBiT % relative to the DMSO control of 3 technical replicates relative to the DMSO control.
HEK293 NEK7-HiBiT cells were treated with the compounds (conc. 0.1, 1 and 10 μM) or DMSO for 24 h. After incubation with compounds NEK7-HiBiT degradation was measured as a luminescence signal using CLARIOstar Multimode Plate reader.
Additionally, compounds reducing NEK7-HiBiT protein level by >=50% at 0.1 μM, were also identified.

Sequence of NEK7-HiBiT protein (Q8TDX7 whole entry): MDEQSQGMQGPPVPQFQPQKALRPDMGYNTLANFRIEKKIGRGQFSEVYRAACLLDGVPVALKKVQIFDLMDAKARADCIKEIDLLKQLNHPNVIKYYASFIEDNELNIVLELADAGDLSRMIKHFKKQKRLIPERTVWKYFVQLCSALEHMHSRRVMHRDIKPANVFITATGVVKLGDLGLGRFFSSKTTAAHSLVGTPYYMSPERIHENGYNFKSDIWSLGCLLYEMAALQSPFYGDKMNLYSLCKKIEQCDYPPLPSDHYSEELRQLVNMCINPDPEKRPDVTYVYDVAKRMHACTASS
Sequence of NEK7-HiBiT protein (Q96SW2 whole entry, further chain): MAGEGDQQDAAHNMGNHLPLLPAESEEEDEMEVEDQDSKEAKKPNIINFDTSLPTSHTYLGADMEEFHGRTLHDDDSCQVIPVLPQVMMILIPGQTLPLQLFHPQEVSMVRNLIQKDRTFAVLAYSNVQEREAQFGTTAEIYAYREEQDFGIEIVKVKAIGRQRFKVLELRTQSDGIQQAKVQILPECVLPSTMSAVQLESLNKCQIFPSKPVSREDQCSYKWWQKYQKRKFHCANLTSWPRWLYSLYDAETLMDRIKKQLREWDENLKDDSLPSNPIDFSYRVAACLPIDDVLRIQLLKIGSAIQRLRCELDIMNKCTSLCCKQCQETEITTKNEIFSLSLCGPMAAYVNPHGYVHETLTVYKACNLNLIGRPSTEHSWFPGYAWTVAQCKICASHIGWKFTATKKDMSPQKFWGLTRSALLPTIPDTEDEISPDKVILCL
Sequence of NEK7-HiBiT protein (Q16531 whole entry partner): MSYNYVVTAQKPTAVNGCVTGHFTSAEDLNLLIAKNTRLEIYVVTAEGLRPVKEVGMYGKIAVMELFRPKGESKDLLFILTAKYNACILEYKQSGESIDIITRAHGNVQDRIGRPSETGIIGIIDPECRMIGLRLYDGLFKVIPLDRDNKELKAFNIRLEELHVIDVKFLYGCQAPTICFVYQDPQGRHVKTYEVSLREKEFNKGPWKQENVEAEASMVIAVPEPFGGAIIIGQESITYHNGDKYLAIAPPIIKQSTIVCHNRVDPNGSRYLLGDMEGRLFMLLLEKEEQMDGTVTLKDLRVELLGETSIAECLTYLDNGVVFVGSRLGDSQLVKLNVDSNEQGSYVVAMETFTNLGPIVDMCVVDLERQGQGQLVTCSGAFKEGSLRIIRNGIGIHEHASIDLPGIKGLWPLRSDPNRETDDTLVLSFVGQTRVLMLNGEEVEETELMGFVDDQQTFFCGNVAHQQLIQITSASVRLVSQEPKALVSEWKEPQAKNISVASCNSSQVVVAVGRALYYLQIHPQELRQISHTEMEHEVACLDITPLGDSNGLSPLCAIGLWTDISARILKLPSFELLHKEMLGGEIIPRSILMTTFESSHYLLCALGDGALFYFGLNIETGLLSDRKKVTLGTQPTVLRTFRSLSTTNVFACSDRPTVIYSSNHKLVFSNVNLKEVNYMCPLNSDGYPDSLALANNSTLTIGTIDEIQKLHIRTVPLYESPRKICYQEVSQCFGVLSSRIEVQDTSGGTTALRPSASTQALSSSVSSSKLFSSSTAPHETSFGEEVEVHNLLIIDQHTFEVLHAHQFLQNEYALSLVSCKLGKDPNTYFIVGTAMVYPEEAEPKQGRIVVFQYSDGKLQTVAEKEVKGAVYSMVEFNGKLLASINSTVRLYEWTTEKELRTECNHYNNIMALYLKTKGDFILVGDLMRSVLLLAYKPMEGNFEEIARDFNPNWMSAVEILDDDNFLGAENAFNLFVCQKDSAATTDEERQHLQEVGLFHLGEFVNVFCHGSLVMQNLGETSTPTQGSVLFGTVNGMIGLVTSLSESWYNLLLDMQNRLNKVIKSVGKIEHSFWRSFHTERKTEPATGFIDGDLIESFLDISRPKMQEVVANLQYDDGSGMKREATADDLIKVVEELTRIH
T1 sequence (Q8TDX7 whole entry): as the sequence (Q8TDX7 whole entry) above
T1 sequence (Q96SW2 whole entry): as the sequence (Q96SW2 whole entry, further chain) above
T1 sequence (Q16531 whole entry partner): as the sequence (Q16531 whole entry partner) above

EC50 [1] | activation at 1 µM [2] | Levels of NEK7-HiBiT Protein (as a % of DMSO control) (NEK7-HiBiT protein) | Normalized AlphaLISA ternary complex average signal at 1 μM molecule [2] | Structure (SMILES)
> 3160 nM | – | D (Levels of NEK7-HiBiT Protein ≥ 75%) | D (Normalized activity < 10%) | CCCCC1CCC(c2ccc3c(c2)CN(C2CCC(=O)NC2=O)C3=O)OC1 (single isomer, unassigned) [70 Isomer 1, 3-(5-(5-butyltetrahydro-2H-pyran-2-yl)-1-oxoisoindolin-2-yl)piperidine-2,6-dione]
> 3160 nM | – | D (Levels of NEK7-HiBiT Protein ≥ 75%) | D (Normalized activity < 10%) | O=C1CCC(N2Cc3cc(C4CCC(c5ccccc5)CO4)ccc3C2=O)C(=O)N1 (single isomer, unassigned) [74 Isomer 1, 3-(1-oxo-5-(5-phenyltetrahydro-2H-pyran-2-yl)isoindolin-2-yl)piperidine-2,6-dione]
> 3160 nM | < 10% | D (Levels of NEK7-HiBiT Protein ≥ 75%) | – | O=C1CCCC(N2Cc3cc(-c4ccccn4)ccc3C2=O)C(=O)N1 (stereo not drawn) [29(2), 3-(1-oxo-5-(pyridin-2-yl)isoindolin-2-yl)azepane-2,7-dione]
> 3160 nM | < 10% | D (Levels of NEK7-HiBiT Protein ≥ 75%) | – | O=C1CCC(N2C(=O)c3cccc4c(C5CCCCN5)ccc2c34)C(=O)N1 (stereo not drawn) [Compound 59, 3-(2-oxo-6-(piperidin-2-yl)benzo[cd]indol-1 (2H)-yl)piperidine-2,6-dione]
316 to 1000 nM | 20 to 80% | D (Levels of NEK7-HiBiT Protein ≥ 75%) | – | COc1ccnc(-c2ccc3c(c2)CN(C2CCC(=O)NC2=O)C3=O)c1 (stereo not drawn) [27(2), 3-(5-(4-methoxypyridin-2-yl)-1-oxoisoindolin-2-yl)piperidine-2,6-dione]
100 to 316 nM | 20 to 80% | A (Levels of NEK7-HiBiT Protein ≤ 25%) | – | CC(=O)NC1CCC(c2ccc3c(c2)CN(C2CCC(=O)NC2=O)C3=O)NC1 (single isomer, unassigned) [33 Isomer 1, N-(6-(2-(2,6-dioxopiperidin-3-yl)-1-oxoisoindolin-5-yl)piperidin-3-yl)acetamide]
> 3160 nM | < 10% | D (Levels of NEK7-HiBiT Protein ≥ 75%) | – | O=C1CCC(N2Cc3cc(-c4ccccn4)sc3C2=O)C(=O)N1 (stereo not drawn) [30(2), 3-(6-oxo-2-(pyridin-2-yl)-4,6-dihydro-5H-thieno[2,3-c]pyrrol-5-yl)piperidine-2,6-dione]
> 3160 nM | – | D (Levels of NEK7-HiBiT Protein ≥ 75%) | C (Normalized activity > 10% and <20%) | O=C1CCC(N2Cc3cc(C4CCC(c5ccccc5)CN4)ccc3C2=O)C(=O)N1 (single isomer, unassigned) [32 Isomer 1, 3-(1-oxo-5-(5-phenylpiperidin-2-yl)isoindolin-2-yl)piperidine-2,6-dione]
> 3160 nM | < 10% | D (Levels of NEK7-HiBiT Protein ≥ 75%) | – | O=C1CCC(N2Cc3cc(C4CCCC(=O)N4)ccc3C2=O)C(=O)N1 (stereo not drawn) [Compound 42, 3-(1-oxo-5-(6-oxopiperidin-2-yl)isoindolin-2-yl)piperidine-2,6-dione]

Structure (SMILES) | EC50 [1] | activation at 1 µM [2] | Levels of NEK7-HiBiT Protein (as a % of DMSO control) (NEK7-HiBiT protein) | Normalized AlphaLISA ternary complex average signal at 1 μM molecule [2]
O=C1CCC(N2Cc3cc(C4CCCCN4)sc3C2=O)C(=O)N1 (stereo not drawn) [Compound 72, 3-(6-oxo-2-(piperidin-2-yl)-4,6-dihydro-5H-thieno[2,3-c]pyrrol-5-yl)piperidine-2,6-dione] | > 3160 nM | < 10% | C (Levels of NEK7-HiBiT Protein > 50% and <75%) | –
O=C1CCC(N2Cc3cc(-c4cc(C(F)(F)F)ccn4)ccc3C2=O)C(=O)N1 (stereo not drawn) [26(2), 3-(1-oxo-5-(4-(trifluoromethyl)pyridin-2-yl)isoindolin-2-yl)piperidine-2,6-dione] | 316 to 1000 nM | 20 to 80% | C (Levels of NEK7-HiBiT Protein > 50% and <75%) | –
O=C1CCC(N2Cc3cc([C@@H]4CCCCN4)ccc3C2=O)C(=O)N1 (stereo partly drawn) [Compound 10, 3-(1-oxo-5-((S)-piperidin-2-yl)isoindolin-2-yl)piperidine-2,6-dione] | 316 to 1000 nM | 10 to 20% | C (Levels of NEK7-HiBiT Protein > 50% and <75%) | –
CN1CCNC(c2ccc3c(c2)CN(C2CCC(=O)NC2=O)C3=O)C1 (stereo not drawn) [Compound 67, 3-(5-(4-methylpiperazin-2-yl)-1-oxoisoindolin-2-yl)piperidine-2,6-dione] | > 3160 nM | 10 to 20% | B (Levels of NEK7-HiBiT Protein > 25% and ≤50%) | –
O=C1CCC(N2Cc3cc(-c4ccc(C(F)(F)F)cn4)ccc3C2=O)C(=O)N1 (stereo not drawn) [16(2), 3-(1-oxo-5-(5-(trifluoromethyl)pyridin-2-yl)isoindolin-2-yl)piperidine-2,6-dione] | 316 to 1000 nM | > 80% | A (Levels of NEK7-HiBiT Protein ≤ 25%) | –
O=C1CCC(N2Cc3cc(C4CCCC(C(F)(F)F)N4)ccc3C2=O)C(=O)N1 (stereo not drawn) [Compound 60, 3-(1-oxo-5-(6-(trifluoromethyl)piperidin-2-yl)isoindolin-2-yl)piperidine-2,6-dione] | 316 to 1000 nM | < 10% | C (Levels of NEK7-HiBiT Protein > 50% and <75%) | –
O=C1CCC(N2Cc3cc(C4CCC(Cc5ccccc5)CN4)ccc3C2=O)C(=O)N1 (single isomer, unassigned) [35 Isomer 1, 3-(5-(5-benzylpiperidin-2-yl)-1-oxoisoindolin-2-yl)piperidine-2,6-dione] | 100 to 316 nM | > 80% | B (Levels of NEK7-HiBiT Protein > 25% and ≤50%) | –
